Results taken from the supplement of paper PMC10307832.

Assays:
Assay in all cases: relative viability (nuclei count vs DMSO), 5 days (fraction); higher = more cells survive
[1] = compound: COc1cc2nccc(Oc3ccc(NC(=O)C4(C(=O)Nc5ccc(F)cc5)CC4)cc3)c2cc1OC [Cabozantinib] + O=C(CCCCCCC(=O)Nc1ccccc1)NO [Vorinostat] (partner 1 µM)
Summary of the method: (§1)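 The day after seeding in 1536-well plates, lung cancer cell lines were treated by pin tool with a single drug, or with a fixed anchor-drug dose together with five library-drug doses (not always all listed) in √10 steps. After 5 days, a combined fix-and-stain solution (final 0.05% Triton X-100, 1% formaldehyde, 1 ug/ml Hoechst) was added. Nuclei counted on 4× images gave relative viability as treated counts over vehicle counts, reported as the median of duplicate plates.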

[2] = compound: O[C@@H](COc1cccc2ncccc12)CN1CCN([C@@H]2c3ccccc3[C@@H]3[C@H](c4ccccc42)C3(F)F)CC1 [Zosuquidar] + Cc1cc(Nc2cc(N3CCN(C)CC3)nc(Sc3ccc(NC(=O)C4CC4)cc3)n2)n[nH]1 [Tozasertib] (partner 0.1 µM)
Summary of the method: as §1

[3] = compound: O[C@@H](COc1cccc2ncccc12)CN1CCN([C@@H]2c3ccccc3[C@@H]3[C@H](c4ccccc42)C3(F)F)CC1 [Zosuquidar] + Cc1nc(Nc2ncc(C(=O)Nc3c(C)cccc3Cl)s2)cc(N2CCN(CCO)CC2)n1 [Dasatinib] (partner 0.075 µM)
Summary of the method: as §1

[4] = compound: COc1cc2nccc(Oc3ccc(NC(=O)C4(C(=O)Nc5ccc(F)cc5)CC4)cc3)c2cc1OC [Cabozantinib] + Cc1nc(NC(=O)N2CCC[C@H]2C(N)=O)sc1-c1ccnc(C(C)(C)C(F)(F)F)c1 [Alpelisib] (partner 2 µM)
Summary of the method: as §1

Row | Cell Line | relative viability ([1]; first compound 0.02 µM) | relative viability ([1]; first compound 0.06325 µM) | relative viability ([1]; first compound 0.2 µM) | relative viability ([1]; first compound 0.6325 µM) | relative viability ([1]; first compound 2 µM) | relative viability ([2]; first compound 0.01 µM) | relative viability ([2]; first compound 0.03162 µM) | relative viability ([2]; first compound 0.1 µM) | relative viability ([2]; first compound 0.3162 µM) | relative viability ([2]; first compound 1 µM) | relative viability ([3]; first compound 0.01 µM) | relative viability ([3]; first compound 0.03162 µM) | relative viability ([3]; first compound 0.1 µM) | relative viability ([3]; first compound 0.3162 µM) | relative viability ([3]; first compound 1 µM) | relative viability ([4]; first compound 0.02 µM) | relative viability ([4]; first compound 0.06325 µM) | relative viability ([4]; first compound 0.2 µM) | relative viability ([4]; first compound 0.6325 µM) | relative viability ([4]; first compound 2 µM)
1 | NCI-H2085 | 0.851 | 0.92 | 0.725 | 0.797 | 0.74 | 0.852 | 0.886 | 0.778 | 0.835 | 0.856 | 0.247 | 0.234 | 0.19 | 0.243 | 0.228 | 1.15 | 1.01 | 0.982 | 0.915 | 0.843
2 | LC-2-ad | 0.724 | 0.806 | 0.767 | 0.682 | 0.522 | 0.461 | 0.491 | 0.51 | 0.522 | 0.463 | 0.509 | 0.74 | 0.531 | 0.589 | 0.613 | 0.869 | 0.976 | 0.834 | 0.659 | 0.45
3 | 201T | 0.77 | 1.03 | 0.962 | 0.932 | 0.969 | 0.876 | 0.907 | 0.888 | 0.993 | 0.854 | 0.611 | 0.551 | 0.526 | 0.632 | 0.581 | 1.03 | 1.05 | 0.981 | 0.99 | 0.958
4 | NCI-H2023 | 0.608 | 0.623 | 0.599 | 0.648 | 0.594 | 0.335 | 0.426 | 0.407 | 0.398 | 0.314 | 0.46 | 0.436 | 0.557 | 0.532 | 0.674 | 0.613 | 0.591 | 0.559 | 0.514 | 0.335
5 | NCI-H1793 | 0.652 | 1.12 |  | 0.744 | 0.759 | 0.345 | 0.534 |  | 0.393 | 0.376 | 0.375 | 0.3 |  | 0.489 | 0.488 | 0.845 | 0.864 | 0.561 | 0.759 | 0.637
6 | NCI-H2347 | 0.525 | 0.525 | 0.627 | 0.469 | 0.391 | 0.593 | 0.575 | 0.555 | 0.691 | 0.543 | 0.321 | 0.384 | 0.253 | 0.309 | 0.351 | 1.2 | 1.15 | 1.01 | 0.985 | 0.668
7 | LXF-289 | 0.755 | 0.765 | 0.659 | 0.738 | 0.756 | 0.244 | 0.2 | 0.179 | 0.222 | 0.187 | 0.217 | 0.125 | 0.237 | 0.301 | 0.182 | 1.11 | 1.09 | 1.01 | 1 | 0.997
8 | EKVX | 0.725 | 0.868 |  | 0.708 | 0.84 | 0.394 | 0.436 | 0.389 | 0.369 | 0.348 | 0.694 | 0.38 | 0.558 | 0.657 | 0.488 | 0.788 | 0.898 | 0.695 | 0.886 | 0.951
9 | ABC-1 |  | 1.24 | 0.99 | 1.02 | 0.913 | 0.143 | 0.172 | 0.194 | 0.234 | 0.178 | 0.625 | 0.592 | 0.575 | 0.766 | 0.532 | 0.865 | 1.16 | 1.01 | 1.01 | 0.995
